Test results as given in ChEMBL document CHEMBL1129121, “Design, synthesis and binding affinities of novel non-peptide mimics of somatostatin/sandostatin” (Bioorg Med Chem Lett, 1996).

Target: Somatostatin receptor
Assay: Compound was tested for its potency to displace 3-[125I]- - Tyr11-SRIF-14 from somatostatin receptor on membranes of rat cerebral cortex
Format: tissue-based

Row | Compound | IC50
1 | NCCCCCCNC[C@H]1[C@@H](OCc2ccccc2)C(OCc2ccccc2)[C@H](CO)N1CCc1c[nH]c2ccccc12 (stereo partly specified) | 14 µM
2 | NCCCCCCN1CC2[C@@H](OCc3ccccc3)[C@H](OCc3ccccc3)[C@H](C1)N2CCc1c[nH]c2ccccc12 | 12 µM
3 | NCCCCCCNC[C@@H]1CN(CCc2c[nH]c3ccccc23)C[C@@H](O)[C@@H](OCc2ccccc2)[C@@H]1OCc1ccccc1 | 10 µM
4 | NCCCCCCN1CC2[C@@H](OCc3ccccc3)[C@H](OCc3ccccc3)C1CN2CCc1c[nH]c2ccccc12 (stereo partly specified) | 15 µM

The remaining lines, values ahead:

Row | IC50 | Compound
5 | 11 µM | NCCCCCCN[C@H]1CN(CCc2c[nH]c3ccccc23)[C@@H](CO)C(OCc2ccccc2)[C@@H]1OCc1ccccc1 (stereo partly specified)
6 | 12 µM | NCCCCCCNC[C@H]1C(OCc2ccccc2)[C@H](OCc2ccccc2)[C@H](O)CN1CCc1c[nH]c2ccccc12 (stereo partly specified)
